Laboratory results as given in PubChem BioAssay (NCI).
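Five compound concentrations were applied to cells in 96-well plates for 48 hours; endpoints were derived by simple linear interpolation of the resulting dose-response curve. GI50: concentration for 50% inhibition of growth. TGI is the concentration that stops growth completely.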

Assays:
Assay in all cases: NCI-60 cell line screen, 48 h
SW-620 colon = tested on: SW-620 colon
SR leukemia = tested on: SR leukemia
RXF 393 renal = tested on: RXF 393 renal
NCI-H226 lung = tested on: NCI-H226 lung
MDA-MB-231 breast = tested on: MDA-MB-231 breast
U251 CNS = tested on: U251 CNS
SF-539 CNS = tested on: SF-539 CNS
SF-295 CNS = tested on: SF-295 CNS
RPMI-8226 leukemia = tested on: RPMI-8226 leukemia
MALME-3M melanoma = tested on: MALME-3M melanoma
NCI-H522 lung = tested on: NCI-H522 lung
OVCAR-3 ovarian = tested on: OVCAR-3 ovarian
EKVX NSCLC = tested on: EKVX NSCLC
HCC-2998 colon = tested on: HCC-2998 colon
OVCAR-8 ovarian = tested on: OVCAR-8 ovarian
SK-MEL-5 melanoma = tested on: SK-MEL-5 melanoma
ACHN renal = tested on: ACHN renal
MDA-MB-435 = tested on: MDA-MB-435
TK-10 renal = tested on: TK-10 renal
M14 melanoma = tested on: M14 melanoma
HCT-15 colon = tested on: HCT-15 colon
SK-MEL-2 melanoma = tested on: SK-MEL-2 melanoma
SN12C renal = tested on: SN12C renal
UO-31 renal = tested on: UO-31 renal
OVCAR-4 ovarian = tested on: OVCAR-4 ovarian
HOP-92 NSCLC = tested on: HOP-92 NSCLC
PC-3 prostate = tested on: PC-3 prostate
LOX IMVI melanoma = tested on: LOX IMVI melanoma
HT29 colon = tested on: HT29 colon
KM12 colon = tested on: KM12 colon
NCI-H23 lung = tested on: NCI-H23 lung
NCI-H460 lung = tested on: NCI-H460 lung
MOLT-4 leukemia = tested on: MOLT-4 leukemia
SK-MEL-28 melanoma = tested on: SK-MEL-28 melanoma
UACC-62 melanoma = tested on: UACC-62 melanoma
T-47D breast = tested on: T-47D breast
K-562 leukemia = tested on: K-562 leukemia
IGROV1 ovarian = tested on: IGROV1 ovarian
MCF7 breast = tested on: MCF7 breast
786-0 renal = tested on: 786-0 renal
SF-268 CNS = tested on: SF-268 CNS
HS 578T breast = tested on: HS 578T breast
A498 renal = tested on: A498 renal
HOP-62 NSCLC = tested on: HOP-62 NSCLC
A549 NSCLC = tested on: A549 NSCLC
UACC-257 melanoma = tested on: UACC-257 melanoma
BT-549 breast = tested on: BT-549 breast
NCI/ADR-RES ovarian = tested on: NCI/ADR-RES ovarian
SNB-75 CNS = tested on: SNB-75 CNS
HCT-116 colon = tested on: HCT-116 colon
HL-60(TB) leukemia = tested on: HL-60(TB) leukemia
SK-OV-3 ovarian = tested on: SK-OV-3 ovarian
OVCAR-5 ovarian = tested on: OVCAR-5 ovarian
CAKI-1 renal = tested on: CAKI-1 renal
DU-145 prostate = tested on: DU-145 prostate
COLO 205 colon = tested on: COLO 205 colon
SNB-19 CNS = tested on: SNB-19 CNS
CCRF-CEM leukemia = tested on: CCRF-CEM leukemia

**Q.** What does the source list for Cc1nc(C(N)=S)sc1C(=O)CC(=O)C(=O)Nc1nc2ccccc2[nH]1?
**A.** TGI (SW-620 colon): > 100 µM; TGI (SR leukemia): > 100 µM; TGI (RXF 393 renal): > 100 µM; TGI (NCI-H226 lung): > 100 µM; TGI (MDA-MB-231 breast): > 100 µM; TGI (U251 CNS): > 100 µM; TGI (SF-539 CNS): > 100 µM; TGI (SF-295 CNS): > 100 µM; TGI (RPMI-8226 leukemia): > 100 µM; TGI (MALME-3M melanoma): > 100 µM; TGI (NCI-H522 lung): > 100 µM; TGI (OVCAR-3 ovarian): > 100 µM; TGI (EKVX NSCLC): > 100 µM; TGI (HCC-2998 colon): > 100 µM; TGI (OVCAR-8 ovarian): > 100 µM; TGI (SK-MEL-5 melanoma): > 100 µM; TGI (ACHN renal): > 100 µM; TGI (MDA-MB-435): > 100 µM; TGI (TK-10 renal): > 100 µM; TGI (M14 melanoma): > 100 µM; TGI (HCT-15 colon): > 100 µM; TGI (SK-MEL-2 melanoma): > 100 µM; TGI (SN12C renal): > 100 µM; TGI (UO-31 renal): > 100 µM; TGI (OVCAR-4 ovarian): > 100 µM; TGI (HOP-92 NSCLC): > 100 µM; TGI (PC-3 prostate): > 100 µM; TGI (LOX IMVI melanoma): > 100 µM; TGI (HT29 colon): > 100 µM; TGI (KM12 colon): > 100 µM; TGI (NCI-H23 lung): > 100 µM; TGI (NCI-H460 lung): > 100 µM; TGI (MOLT-4 leukemia): > 100 µM; TGI (SK-MEL-28 melanoma): > 100 µM; TGI (UACC-62 melanoma): > 100 µM; TGI (T-47D breast): > 100 µM; TGI (K-562 leukemia): > 100 µM; TGI (IGROV1 ovarian): > 100 µM; TGI (MCF7 breast): > 100 µM; TGI (786-0 renal): > 100 µM; TGI (SF-268 CNS): > 100 µM; TGI (HS 578T breast): > 100 µM; TGI (A498 renal): > 100 µM; TGI (HOP-62 NSCLC): > 100 µM; TGI (A549 NSCLC): > 100 µM; TGI (UACC-257 melanoma): > 100 µM; TGI (BT-549 breast): > 100 µM; TGI (NCI/ADR-RES ovarian): > 100 µM; TGI (SNB-75 CNS): > 100 µM; TGI (HCT-116 colon): > 100 µM; TGI (HL-60(TB) leukemia): > 100 µM; TGI (SK-OV-3 ovarian): > 100 µM; TGI (OVCAR-5 ovarian): > 100 µM; TGI (CAKI-1 renal): > 100 µM

**Q.** COc1cc(/C=C/C(=O)CC(=O)/C=C/c2ccc(O)c(OC)c2)ccc1O was tested. Which TGI (SW-620 colon) did it give?
**A.** 21.2 µM

**Q.** What about the TGI (SR leukemia) of the same compound?
**A.** 14.6 µM

**Q.** What about the TGI (RXF 393 renal) of the same compound?
**A.** 11.3 µM

**Q.** What about the TGI (NCI-H226 lung) of the same compound?
**A.** 53.7 µM

**Q.** And the TGI (MDA-MB-231 breast)?
**A.** 55.7 µM

**Q.** What about the TGI (DU-145 prostate) of the same compound?
**A.** 29.7 µM

**Q.** What about the TGI (U251 CNS) of the same compound?
**A.** 16.5 µM

**Q.** And the TGI (SF-539 CNS)?
**A.** 8.87 µM

**Q.** And the TGI (SF-295 CNS)?
**A.** 20.7 µM

**Q.** What about the TGI (RPMI-8226 leukemia) of the same compound?
**A.** 6.28 µM

**Q.** And the TGI (MALME-3M melanoma)?
**A.** 27.4 µM

**Q.** And the TGI (NCI-H522 lung)?
**A.** 16.7 µM

**Q.** And the TGI (OVCAR-3 ovarian)?
**A.** 24.7 µM

**Q.** And the TGI (HCC-2998 colon)?
**A.** 8.08 µM

**Q.** What about the TGI (COLO 205 colon) of the same compound?
**A.** 28.9 µM

**Q.** And the TGI (OVCAR-8 ovarian)?
**A.** 28.4 µM

**Q.** What about the TGI (SK-MEL-5 melanoma) of the same compound?
**A.** 22.5 µM

**Q.** What about the TGI (ACHN renal) of the same compound?
**A.** 28.9 µM

**Q.** What about the TGI (MDA-MB-435) of the same compound?
**A.** 12.1 µM

**Q.** What about the TGI (TK-10 renal) of the same compound?
**A.** 30.6 µM

**Q.** And the TGI (M14 melanoma)?
**A.** 16 µM

**Q.** What about the TGI (HCT-15 colon) of the same compound?
**A.** 18.5 µM

**Q.** What about the TGI (SK-MEL-2 melanoma) of the same compound?
**A.** 40.3 µM

**Q.** What about the TGI (SN12C renal) of the same compound?
**A.** 25.1 µM

**Q.** And the TGI (SNB-19 CNS)?
**A.** 15.7 µM

**Q.** What about the TGI (UO-31 renal) of the same compound?
**A.** 24.8 µM

**Q.** What about the TGI (OVCAR-4 ovarian) of the same compound?
**A.** 36.6 µM

**Q.** And the TGI (PC-3 prostate)?
**A.** 26 µM

**Q.** And the TGI (LOX IMVI melanoma)?
**A.** 15.5 µM

**Q.** And the TGI (HT29 colon)?
**A.** 32.4 µM

**Q.** What about the TGI (KM12 colon) of the same compound?
**A.** 19.7 µM

**Q.** What about the TGI (NCI-H23 lung) of the same compound?
**A.** 31.8 µM

**Q.** What about the TGI (NCI-H460 lung) of the same compound?
**A.** 23.1 µM

**Q.** What about the TGI (MOLT-4 leukemia) of the same compound?
**A.** 18 µM

**Q.** And the TGI (SK-MEL-28 melanoma)?
**A.** 15.9 µM

**Q.** And the TGI (UACC-62 melanoma)?
**A.** 20.6 µM

**Q.** And the TGI (CCRF-CEM leukemia)?
**A.** 15.6 µM

**Q.** What about the TGI (T-47D breast) of the same compound?
**A.** 46.9 µM

**Q.** What about the TGI (K-562 leukemia) of the same compound?
**A.** > 55.6 µM

**Q.** And the TGI (IGROV1 ovarian)?
**A.** 26.7 µM

**Q.** And the TGI (MCF7 breast)?
**A.** 34.3 µM

**Q.** And the TGI (786-0 renal)?
**A.** 10.8 µM

**Q.** And the TGI (SF-268 CNS)?
**A.** 36.1 µM

**Q.** And the TGI (HS 578T breast)?
**A.** 58.5 µM

**Q.** And the TGI (A498 renal)?
**A.** 33.1 µM

**Q.** What about the TGI (HOP-62 NSCLC) of the same compound?
**A.** 19.1 µM

**Q.** What about the TGI (A549 NSCLC) of the same compound?
**A.** 31.7 µM

**Q.** What about the TGI (UACC-257 melanoma) of the same compound?
**A.** 23.9 µM

**Q.** And the TGI (BT-549 breast)?
**A.** 13.7 µM

**Q.** What about the TGI (NCI/ADR-RES ovarian) of the same compound?
**A.** 27.6 µM

**Q.** What about the TGI (SNB-75 CNS) of the same compound?
**A.** 18 µM

**Q.** And the TGI (HCT-116 colon)?
**A.** 9.36 µM

**Q.** What about the TGI (HL-60(TB) leukemia) of the same compound?
**A.** 25 µM

**Q.** And the TGI (SK-OV-3 ovarian)?
**A.** 21 µM

**Q.** What about the TGI (CAKI-1 renal) of the same compound?
**A.** 25.1 µM

**Q.** COc1cc(/C=C/C(=O)c2ccc(NC(=O)CSc3nnc(-c4cc(OC)c(OC)c(OC)c4)n3-c3ccccc3)cc2)cc(OC)c1OC was tested. Which GI50 (SR leukemia) did it give?
**A.** 0.316 µM

**Q.** What about the TGI (SR leukemia) of the same compound?
**A.** > 100 µM

**Q.** What about the GI50 (MDA-MB-231 breast) of the same compound?
**A.** 4.09 µM

**Q.** What about the TGI (MDA-MB-231 breast) of the same compound?
**A.** > 100 µM

**Q.** And the GI50 (U251 CNS)?
**A.** 0.527 µM

**Q.** And the TGI (U251 CNS)?
**A.** > 100 µM

**Q.** What about the GI50 (TK-10 renal) of the same compound?
**A.** 9.3 µM

**Q.** And the TGI (TK-10 renal)?
**A.** > 100 µM

**Q.** And the GI50 (SNB-19 CNS)?
**A.** 2.18 µM

**Q.** And the TGI (SNB-19 CNS)?
**A.** > 100 µM

**Q.** What about the GI50 (OVCAR-4 ovarian) of the same compound?
**A.** 1.8 µM

**Q.** And the TGI (OVCAR-4 ovarian)?
**A.** > 100 µM

**Q.** What about the GI50 (HOP-92 NSCLC) of the same compound?
**A.** 2.06 µM

**Q.** What about the TGI (HOP-92 NSCLC) of the same compound?
**A.** 9.67 µM

**Q.** And the GI50 (786-0 renal)?
**A.** 1.05 µM

**Q.** And the TGI (786-0 renal)?
**A.** 4.63 µM

**Q.** And the GI50 (HS 578T breast)?
**A.** 20.4 µM

**Q.** And the TGI (HS 578T breast)?
**A.** > 100 µM

**Q.** And the GI50 (HOP-62 NSCLC)?
**A.** 1.84 µM

**Q.** And the TGI (HOP-62 NSCLC)?
**A.** 7.06 µM

**Q.** What about the GI50 (SNB-75 CNS) of the same compound?
**A.** 0.429 µM

**Q.** And the TGI (SNB-75 CNS)?
**A.** 14.2 µM
